Laboratory results as given in PMC6556873, “Rapid Covalent-Probe Discovery by Electrophile-Fragment Screening” (Journal of the American Chemical Society, 2019).
Like-named read-outs stand apart in the source and are kept apart here.

Tests used:
[1] = biological target: T1, PCAF (Homo sapiens, UniProt Q92831); parameters: Intact protein LC/MS covalent labelling, fragments in pools of five, 200 uM each, 4 °C; conditions: 24 h, 4 °C, pool of five; 200 µM; covalent
T1 construct: gene KAT2B

[2] = biological target: T2, OTUB2 (OTUB2A) (Homo sapiens, UniProt Q96DC9); parameters: Intact protein LC/MS covalent labelling, fragments in pools of five, 200 uM each, 4 °C; conditions: 24 h, 4 °C, pool of five; 200 µM; covalent
T2 construct: full length residues 1-234, E. coli BL21(DE3)-R3, His tag removed by TEV, construct 27312 Da
T2 sequence (Q96DC9 1-234): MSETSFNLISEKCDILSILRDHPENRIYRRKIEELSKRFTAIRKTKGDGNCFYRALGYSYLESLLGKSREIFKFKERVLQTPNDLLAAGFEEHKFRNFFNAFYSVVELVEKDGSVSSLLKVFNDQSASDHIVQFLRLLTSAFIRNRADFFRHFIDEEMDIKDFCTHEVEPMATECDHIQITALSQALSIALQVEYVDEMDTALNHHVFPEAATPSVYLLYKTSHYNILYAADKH

[3] = biological target: T3, BSA (Bos taurus, UniProt P02769); parameters: Intact protein LC/MS covalent labelling, fragments in pools of five, 200 uM each, 4 °C; conditions: 24 h, 4 °C, pool of five; 200 µM; covalent
T3 construct: gene ALB

[4] = biological target: T4, NUDT7 (Homo sapiens, UniProt P0C024); parameters: Intact protein LC/MS covalent labelling, fragments in pools of five, 200 uM each, 4 °C; conditions: 24 h, 4 °C, pool of five; 200 µM; covalent
T4 construct: residues 14-235, E. coli, pNIC28-Bsa4, N-terminal His6 tag removed by TEV, construct 26672 Da

[5] = in vitro; parameters: species or system HB2, CCD841; conditions: human, hek293 cells
[6] = in vitro; parameters: species or system CCD841, HEK293; conditions: human, hb2 cells, read-out: HB-2 Cells Viability (%)
[7] = in vitro; parameters: species or system HB2, HEK293; conditions: human, ccd841 cells

T1 sequence (Q92831 whole entry, the tested form may be a part): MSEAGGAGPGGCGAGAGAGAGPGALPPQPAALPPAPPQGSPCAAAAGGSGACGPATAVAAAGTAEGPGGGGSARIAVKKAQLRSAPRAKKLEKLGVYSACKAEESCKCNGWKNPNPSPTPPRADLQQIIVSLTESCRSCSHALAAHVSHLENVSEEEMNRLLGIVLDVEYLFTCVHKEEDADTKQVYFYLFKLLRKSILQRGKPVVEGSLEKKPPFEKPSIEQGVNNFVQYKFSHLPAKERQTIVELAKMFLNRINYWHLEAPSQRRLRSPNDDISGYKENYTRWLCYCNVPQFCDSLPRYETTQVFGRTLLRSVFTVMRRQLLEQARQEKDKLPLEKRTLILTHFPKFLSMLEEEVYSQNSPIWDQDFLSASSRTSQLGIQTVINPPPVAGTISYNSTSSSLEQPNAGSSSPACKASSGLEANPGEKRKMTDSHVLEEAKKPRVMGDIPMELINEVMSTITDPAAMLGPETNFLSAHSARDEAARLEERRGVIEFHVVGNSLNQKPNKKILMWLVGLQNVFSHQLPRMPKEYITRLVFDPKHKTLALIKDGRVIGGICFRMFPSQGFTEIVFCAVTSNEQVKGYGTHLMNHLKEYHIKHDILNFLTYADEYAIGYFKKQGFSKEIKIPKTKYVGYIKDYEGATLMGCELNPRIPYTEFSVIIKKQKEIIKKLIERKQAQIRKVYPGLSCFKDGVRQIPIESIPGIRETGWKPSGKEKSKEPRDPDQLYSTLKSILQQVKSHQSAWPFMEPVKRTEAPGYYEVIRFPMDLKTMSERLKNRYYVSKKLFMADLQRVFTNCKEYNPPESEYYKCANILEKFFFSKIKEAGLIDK
T3 sequence (P02769 whole entry, the tested form may be a part): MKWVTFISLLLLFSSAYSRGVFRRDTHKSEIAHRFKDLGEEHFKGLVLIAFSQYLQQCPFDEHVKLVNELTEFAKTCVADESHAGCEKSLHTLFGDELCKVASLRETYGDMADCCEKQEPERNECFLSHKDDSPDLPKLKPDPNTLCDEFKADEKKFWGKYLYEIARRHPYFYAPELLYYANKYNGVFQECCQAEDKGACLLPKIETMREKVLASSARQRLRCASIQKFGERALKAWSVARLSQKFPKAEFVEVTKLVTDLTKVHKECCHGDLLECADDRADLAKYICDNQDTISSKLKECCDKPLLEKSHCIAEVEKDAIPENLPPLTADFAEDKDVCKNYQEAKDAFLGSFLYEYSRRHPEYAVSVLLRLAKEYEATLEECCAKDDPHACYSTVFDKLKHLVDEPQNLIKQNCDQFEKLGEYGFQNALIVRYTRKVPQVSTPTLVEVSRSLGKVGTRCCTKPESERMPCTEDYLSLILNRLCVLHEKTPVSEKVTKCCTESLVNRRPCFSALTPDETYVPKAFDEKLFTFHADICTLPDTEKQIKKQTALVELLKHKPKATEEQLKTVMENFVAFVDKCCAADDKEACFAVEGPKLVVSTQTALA
T4 sequence (P0C024 14-235): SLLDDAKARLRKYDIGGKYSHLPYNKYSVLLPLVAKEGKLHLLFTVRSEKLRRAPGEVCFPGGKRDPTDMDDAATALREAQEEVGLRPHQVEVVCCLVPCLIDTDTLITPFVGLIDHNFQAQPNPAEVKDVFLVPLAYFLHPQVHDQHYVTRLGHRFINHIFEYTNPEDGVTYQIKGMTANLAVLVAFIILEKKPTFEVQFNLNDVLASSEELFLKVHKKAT

Row | Structure (SMILES) | PCAF [1] | OTUB2 [2] | BSA [3] | NUDT7 [4] | viability at 48 h, 10 µM [5] | viability at 48 h, 10 µM [6] | viability at 48 h, 10 µM [7]
1 | C=CC(=O)N1CC(OC(=O)Nc2cccc(F)c2)C1 [PCM-0102688] | 0 | 0.17 | 0 | 0 | 95.8% | 82.3% | 99%
2 | O=C(CCl)NC(=O)c1cccc2ccccc12 [PCM-0102694] | 0 | 0 | 0 | 0 | 111% | 101% | 112%
3 | O=C(CCl)Nc1cccc(C(=O)O)c1 [PCM-0102696] | 0 | 0.11 | 0 | 0 | 84.6% | 90.3% | 86.9%
4 | CC1CC(=O)Nc2ccccc2N1C(=O)CCl (stereo not drawn) [PCM-0102697] | 0 | 0 | 0 | 0.22 | 52.8% | 83.7% | 62.6%
5 | O=C(CCl)Nc1nc2ccccc2s1 [PCM-0102698] | 0 | 0.07 | 0 | 0.83 | 65.6% | 64.2% | 77.5%
6 | Cc1cc(NC(=O)CCl)n(-c2ccccc2C)n1 [PCM-0102699] | 0 | 0 | 0 | 0 | 36.9% | 58.9% | 81.6%
7 | N#Cc1ccc(Cl)cc1NC(=O)CCl [PCM-0102700] | 0 | 0.17 | 0 | 0.4 | 64.8% | 57.6% | 68.1%
8 | CCCNC(=O)NC(=O)CCl [PCM-0102702] | 0 | 0.22 | 0 | 0 | 82.9% | 91.6% | 91.6%
9 | CN(C(=O)CCl)C1CCCc2ccccc21 (stereo not drawn) [PCM-0102703] | 0 | 0 | 0 | 0.3 | 5.8% | 6.6% | 25.8%
10 | O=C(CCl)N1CCN(S(=O)(=O)c2ccc(Cl)cc2)CC1 [PCM-0102704] | 0 | 0 | 0 | 0.25 | 2.7% | 2.5% | 18.8%
11 | O=C(CCl)N1CCc2cc(S(=O)(=O)N3CCCCC3)ccc21 [PCM-0102705] | 0 | 0 | 0 | 0 | 51.1% | 4.2% | 28.8%
12 | O=C(CCl)NCC12CC3CC(CC(C3)C1)C2 [PCM-0102706] | 0 | 0.65 | 0 | 0 | 40.8% | 61.3% | 76.1%
13 | C=CCNC(=O)NC(=O)CCl [PCM-0102709] | 0 | 0 | 0 | 0 | 75.3% | 90% | 77.7%
14 | CC(c1ccccc1)N1CCN(C(=O)CCl)CC1.Cl (stereo not drawn) [PCM-0102710] | 0 | 0.12 | 0 | 0 | 41.3% | 36.7% | 72.5%
15 | O=C(CCl)NC(=O)c1ccc(Cl)cc1 [PCM-0102711] | 0 | 0 | 0 | 0 | 103% | 98.9% | 96.8%
16 | C=CC(=O)N1CCN(c2nccc3sccc23)CC1 [PCM-0102715] | 0 | 0 | 0 | 0 | 78.2% | 97.2% | 92.1%
17 | C=CC(=O)N(C)CC(=O)N1c2ccccc2NC(=O)CC1C (stereo not drawn) [PCM-0102729] | 0 | 0 | 0 | 0 | 107% | 104% | 107%
18 | O=C(CCl)NCc1ccc(F)cc1C(F)(F)F [PCM-0102733] | 0 | 0.33 | 0 | 0.06 | 68.8% | 86.6% | 79.1%
19 | COC(=O)C1(NC(=O)CCl)CCCCC1 [PCM-0102734] | 0 | 0 | 0 | 0 | 112% | 98.3% | 95.1%
20 | C#Cc1cccc(NC(=O)CCl)c1 [PCM-0102735] | 0 | 0.09 | 0 | 0 | 87% | 90.9% | 85.7%

The next lines start with results.

Row | PCAF [1] | OTUB2 [2] | BSA [3] | NUDT7 [4] | Structure (SMILES) | viability at 48 h, 10 µM [5] | viability at 48 h, 10 µM [6] | viability at 48 h, 10 µM [7]
21 | 0 | 0 | 0 | 0 | C=CC(=O)N1CCCC(c2nc(-c3cccc(F)c3)no2)C1 (stereo not drawn) [PCM-0102689] | 89.4% | 101% | 97.4%
22 | 0 | 0 | 0 | 0 | C=CC(=O)N1CCC2(CC1)CNC(=O)C2 [PCM-0102690] | 95.1% | 100% | 107%
23 | 0 | 0.2 | 0 | 0 | C=CC(=O)NCC1(O)CCS(=O)(=O)CC1 [PCM-0102691] | 103% | 104% | 104%
24 | 0 | 0 | 0 | 0.2 | O=C(CCl)N1CCCC1c1ccsc1 (stereo not drawn) [PCM-0102693] | 4.6% | 11.7% | 37.7%
25 | 0 | 0 | 0 | 0.18 | C=CC(=O)Nc1nc2ccccc2s1 [PCM-0102695] | 51.9% | 33.8% | 50.3%
26 | 0 | 0 | 0.12 | 0 | C=CC(=O)N1CCC(S(=O)(=O)N2CCCC2)C1 (stereo not drawn) [PCM-0102701] | 85.2% | 97.8% | 95.6%
27 | 0 | 0 | 0 | 0.16 | C=CC(=O)NCC1COc2ccccc2O1 (stereo not drawn) [PCM-0102713] | 76.1% | 99% | 102%
28 | 0 | 0 | 0 | 0 | C=CC(=O)NCC1CCCS1 (stereo not drawn) [PCM-0102719] | 86.1% | 102% | 105%
29 | 0 | 0 | 0 | 0 | C=CC(=O)N1CCOCC1c1cccn1C (stereo not drawn) [PCM-0102721] | 97.2% | 102% | 92.8%
30 | 0 | 0 | 0 | 0 | C=CC(=O)NC1(c2nnc[nH]2)CCC1 [PCM-0102722] | 105% | 102% | 96.7%
31 | 0 | 0 | 0 | 0 | C=CC(=O)N1CCCC(C(C)NC(=O)NC(C)(C)C)C1 (stereo not drawn) [PCM-0102723] | 99.2% | 105% | 109%
32 | 0 | 0 | 0.1 | 0 | C=CC(=O)NCC1=CCCCC1 [PCM-0102726] | 89.9% | 105% | 99.1%
33 | 0 | 0.18 | 0 | 0 | C=CC(=O)NCc1nnc(C(C)(C)C)s1 [PCM-0102727] | 100% | 105% | 108%
